Test results reported in paper PMC10938783, “A novel pan-PI3K inhibitor KTC1101 synergizes with anti-PD-1 therapy by targeting tumor suppression and immune activation” (Molecular Cancer, 2024).

Tested on: B16 cells gene expression
Assay: RNA-Seq (DEGs, GSEA, heatmaps) of B16 cells
Settings: for NES / enrichmentScore: KTC 0.2μM
[1] = B16 cells, GSEA gene set HALLMARK_ADIPOGENESIS
[2] = B16 cells, GSEA gene set HALLMARK_ALLOGRAFT_REJECTION
[3] = B16 cells, GSEA gene set HALLMARK_ANDROGEN_RESPONSE
[4] = B16 cells, GSEA gene set HALLMARK_APICAL_JUNCTION
[5] = B16 cells, GSEA gene set HALLMARK_APICAL_SURFACE
[6] = B16 cells, GSEA gene set HALLMARK_APOPTOSIS
[7] = B16 cells, GSEA gene set HALLMARK_BILE_ACID_METABOLISM
[8] = B16 cells, GSEA gene set HALLMARK_CHOLESTEROL_HOMEOSTASIS
[9] = B16 cells, GSEA gene set HALLMARK_COAGULATION
[10] = B16 cells, GSEA gene set HALLMARK_COMPLEMENT
[11] = B16 cells, GSEA gene set HALLMARK_DNA_REPAIR
[12] = B16 cells, GSEA gene set HALLMARK_E2F_TARGETS
[13] = B16 cells, GSEA gene set HALLMARK_EPITHELIAL_MESENCHYMAL_TRANSITION
[14] = B16 cells, GSEA gene set HALLMARK_ESTROGEN_RESPONSE_EARLY
[15] = B16 cells, GSEA gene set HALLMARK_ESTROGEN_RESPONSE_LATE
[16] = B16 cells, GSEA gene set HALLMARK_FATTY_ACID_METABOLISM
[17] = B16 cells, GSEA gene set HALLMARK_G2M_CHECKPOINT
[18] = B16 cells, GSEA gene set HALLMARK_GLYCOLYSIS
[19] = B16 cells, GSEA gene set HALLMARK_HEDGEHOG_SIGNALING
[20] = B16 cells, GSEA gene set HALLMARK_HEME_METABOLISM
[21] = B16 cells, GSEA gene set HALLMARK_HYPOXIA
[22] = B16 cells, GSEA gene set HALLMARK_IL2_STAT5_SIGNALING
[23] = B16 cells, GSEA gene set HALLMARK_IL6_JAK_STAT3_SIGNALING
[24] = B16 cells, GSEA gene set HALLMARK_INFLAMMATORY_RESPONSE
[25] = B16 cells, GSEA gene set HALLMARK_INTERFERON_ALPHA_RESPONSE
[26] = B16 cells, GSEA gene set HALLMARK_INTERFERON_GAMMA_RESPONSE
[27] = B16 cells, GSEA gene set HALLMARK_KRAS_SIGNALING_DN
[28] = B16 cells, GSEA gene set HALLMARK_KRAS_SIGNALING_UP
[29] = B16 cells, GSEA gene set HALLMARK_MITOTIC_SPINDLE
[30] = B16 cells, GSEA gene set HALLMARK_MTORC1_SIGNALING
[31] = B16 cells, GSEA gene set HALLMARK_MYC_TARGETS_V1
[32] = B16 cells, GSEA gene set HALLMARK_MYC_TARGETS_V2
[33] = B16 cells, GSEA gene set HALLMARK_MYOGENESIS
[34] = B16 cells, GSEA gene set HALLMARK_NOTCH_SIGNALING
[35] = B16 cells, GSEA gene set HALLMARK_OXIDATIVE_PHOSPHORYLATION
[36] = B16 cells, GSEA gene set HALLMARK_P53_PATHWAY

In the case of `COc1cc(N)cc2c1nc(C(F)F)n2-c1nc(N2CCCOCC2)nc(N2CCOCC2)n1` [KTC1101, 2-(difluoromethyl)-4-methoxy-1-(4-morpholino-6-(1,4-oxazepan-4-yl)-1,3,5-triazin-2-yl)-1H-benzo[d]imidazol-6-amine], the “NES, mmu05152 Tuberculosis” value was -0.8664, the “NES, mmu05164 Influenza A” value was 0.7158 and the “NES, mmu05169 Epstein-Barr virus infection” value was 0.9901. For the same compound, the “enrichmentScore, mmu05152 Tuberculosis” value was -0.1994, the “enrichmentScore, mmu05164 Influenza A” value was 0.2008 and the “enrichmentScore, mmu05169 Epstein-Barr virus infection” value was 0.2613. For the same compound, the “immune pathways TNFα signaling via NF-κB, inflammatory response, chemokine signaling, cytokine-cytokine receptor interaction, IL-2-STAT5 (GSEA)” value (B16 cells, 0.04 and 0.2 μM, 48 h) was “significantly upregulated at both tested concentrations”, the NES [1] was -1.91 and the enrichmentScore [1] was -0.3889. For the same compound, the NES [2] was 1.691, the enrichmentScore [2] was 0.4865 and the NES [3] was 0.8627. It also gave an enrichmentScore [3] of 0.2417, an NES [4] of 1.3836 and an enrichmentScore [4] of 0.3738. It also gave an NES [5] of -2.057, an enrichmentScore [5] of -0.6354 and an NES [6] of 0.9502. It also gave an enrichmentScore [6] of 0.2533, an NES [7] of -0.7889 and an enrichmentScore [7] of -0.209. For the same compound, the NES [8] was -2.882, the enrichmentScore [8] was -0.7203 and the NES [9] was 2.055. It also gave an enrichmentScore [9] of 0.594, an NES [10] of 1.839 and an enrichmentScore [10] of 0.5017. For the same compound, the NES [11] was -0.6206, the enrichmentScore [11] was -0.1386 and the NES [12] was -2.092. The enrichmentScore [12] was -0.4182, the NES [13] was 1.653 and the enrichmentScore [13] was 0.443. The NES [14] was 1.194, the enrichmentScore [14] was 0.32 and the NES [15] was -1.354. The enrichmentScore [15] was -0.2968, the NES [16] was -1.5293 and the enrichmentScore [16] was -0.3352. For the same compound, the NES [17] was -1.723, the enrichmentScore [17] was -0.3452 and the NES [18] was -3.021. The enrichmentScore [18] was -0.6285, the NES [19] was -1.553 and the enrichmentScore [19] was -0.4866. It also gave an NES [20] of -0.8539, an enrichmentScore [20] of -0.1842 and an NES [21] of -1.667. For the same compound, the enrichmentScore [21] was -0.3411, the NES [22] was 1.6961 and the enrichmentScore [22] was 0.4531. For the same compound, the NES [23] was 1.437, the enrichmentScore [23] was 0.4564 and the NES [24] was 1.614. The enrichmentScore [24] was 0.4471, the NES [25] was -0.8696 and the enrichmentScore [25] was -0.2269. For the same compound, the NES [26] was 1.08, the enrichmentScore [26] was 0.2921 and the NES [27] was 1.399. For the same compound, the enrichmentScore [27] was 0.4365, the NES [28] was 2.0673 and the enrichmentScore [28] was 0.5585. For the same compound, the NES [29] was -1.3285, the enrichmentScore [29] was -0.2672 and the NES [30] was -3.5229. The enrichmentScore [30] was -0.6921, the NES [31] was -0.8926 and the enrichmentScore [31] was -0.1781. It also gave an NES [32] of -0.5144, an enrichmentScore [32] of -0.1367 and an NES [33] of 1.795. The enrichmentScore [33] was 0.4818, the NES [34] was 1.2511 and the enrichmentScore [34] was 0.4419. It also gave an NES [35] of -2.275, an enrichmentScore [35] of -0.46 and an NES [36] of -1.372. The enrichmentScore [36] was -0.2855 and the NES (B16 cells, GSEA gene set HALLMARK_PEROXISOME) was -1.588.
